US4178442A, “Novel cinnamoyles piperazines and homopiperazines, the method of preparing them and their application in therapeutics” (Delalande S. A., priority 1977, dated 1979)
Where two headings read alike, the source gives them in different places.

Legend:
[1] = tested on: anaesthetized dog; experiment: Antiangorous activity on anaesthetized dog: consumption of oxygen in the left ventricule and cardiac effort (KATZ's index); assay type: in vivo; conditions: for inhibition in vivo at 2.5 mg/kg / inhibition in vivo at 0.6 mg/kg / inhibition in vivo at 0.12 mg/kg / inhibition in vivo at 1.25 mg/kg / inhibition in vivo at 0.625 mg/kg / inhibition in vivo at 5 mg/kg / inhibition in vivo at 2.3 mg/kg / inhibition in vivo at […]: Canis lupus familiaris, iv; for inhibition in vivo at […]: 0.15 mg/kg i.v. slow perfusion
Experimental: The antiangorous activity was tested on an anaesthetized dog (sodium pentobarbital 30 mg/kg/i.v.).
The consumption of oxygen in the left ventricule was estimated by the product of the coronary venous flow and the coronary arteriovenous difference in oxygen (% volume).
The coronary venous flow was measured at the coronary venous sinus by means of a modified Morawitz cannula, introduced under radioscopic control.
The cardiac effort was estimated according to KATZ's index, by the product of the average arterial pressure and the cardiac frequency.
The cardiac frequency was estimated from the electrocardiogram recorded with D2 derivation.
It should be noted that the compounds tested were injected intravenously with slow perfusion.

[2] = in vivo; conditions: iv; for mortality: read-out: Toxicity (Mortality); for LD50: read-out: Toxicity: LD50
Excerpt: *LD50 or percentage of mortality which is given between brackets

[3] = 2.5 mg/kg i.v. slow perfusion, read-out: Diminution in consumption of O2
[4] = 2.5 mg/kg i.v. slow perfusion, read-out: Diminution in the cardiac effort (IK)
[5] = 0.12 mg/kg i.v. slow perfusion, read-out: Diminution in consumption of O2
[6] = 0.12 mg/kg i.v. slow perfusion, read-out: Diminution in the cardiac effort (IK)
[7] = 0.625 mg/kg i.v. slow perfusion

## COc1cc(/C=C/C(=O)N2CCN(CC(O)COc3ccc(C)c4c3OCCO4)CC2)cc(OC)c1OC (stereo not drawn) [760 847]
[1]; 2.5 mg/kg i.v. slow perfusion
  Diminution in consumption of O2: in time: 60 min
[1]; [3]
  inhibition in vivo at 2.5 mg/kg: 47%
[1]; [4]
  inhibition in vivo at 2.5 mg/kg: 14%
[2]; 169 mg/kg i.v.
  mortality: 20%

## CCCC(=O)c1ccc(OCC(O)CN2CCN(C(=O)/C=C/c3cc(OC)c(OC)c(OC)c3)CC2)c2c1OCCO2 (stereo not drawn) [760 866]
[1]; 0.6 mg/kg i.v. slow perfusion
  Diminution in consumption of O2: in time: 30 min
  Diminution in the cardiac effort (IK): in time: 30 min
[1]; 0.6 mg/kg i.v. slow perfusion, read-out: Diminution in consumption of O2
  inhibition in vivo at 0.6 mg/kg: 54%
[1]; 0.6 mg/kg i.v. slow perfusion, read-out: Diminution in the cardiac effort (IK)
  inhibition in vivo at 0.6 mg/kg: 20%
[2]; 360 mg/kg i.v.
  mortality: 30%

## COc1cc(/C=C/C(=O)N2CCN(CC(O)COc3ccc(NC(C)=O)c4c3OCCO4)CC2)cc(OC)c1OC (stereo not drawn) [760 868]
[1]; 0.12 mg/kg i.v. slow perfusion
  Diminution in consumption of O2: in time: 30 min
  Diminution in the cardiac effort (IK): in time: 30 min
[1]; [5]
  inhibition in vivo at 0.12 mg/kg: 33%
[1]; [6]
  inhibition in vivo at 0.12 mg/kg: 18%
[2]; 215 mg/kg i.v.
  mortality: 40%

## CCCC(=O)Nc1ccc(OCC(O)CN2CCN(C(=O)/C=C/c3cc(OC)c(OC)c(OC)c3)CC2)cc1 (stereo not drawn) [760 892]
[1]; 2.5 mg/kg i.v. slow perfusion
  Diminution in consumption of O2: in time: 60 min
  Diminution in the cardiac effort (IK): in time: 45 min
[1]; [3]
  inhibition in vivo at 2.5 mg/kg: 74%
[1]; [4]
  inhibition in vivo at 2.5 mg/kg: 22%
[2]; 400 mg/kg i.v.
  mortality: 40%

## COc1cc(/C=C/C(=O)N2CCN(CCCOc3ccc(C(C)=O)c4c3OCCO4)CC2)cc(OC)c1OC [760 939, 1-[3-(4-acetyl-2,3-ethylenedioxy)phenoxy]-propyl-4-(3,4,5-trimethoxycinnamoyl)piperazine]
[1]; 1.25 mg/kg i.v. slow perfusion
  Diminution in consumption of O2: in time: 30 min
  Diminution in the cardiac effort (IK): in time: 23 min
[1]; 1.25 mg/kg i.v. slow perfusion, read-out: Diminution in consumption of O2
  inhibition in vivo at 1.25 mg/kg: 27%
[1]; 1.25 mg/kg i.v. slow perfusion, read-out: Diminution in the cardiac effort (IK)
  inhibition in vivo at 1.25 mg/kg: 11%
[2]; 400 mg/kg i.v.
  mortality: 20%

## COc1cc(/C=C/C(=O)N2CCN(CC(O)COc3cccc4c3CCCC4=O)CC2)cc(OC)c1OC (stereo not drawn) [760 986]
[1]; 2.5 mg/kg i.v. slow perfusion
  Diminution in consumption of O2: in time: 60 min
  Diminution in the cardiac effort (IK): in time: 60 min
[1]; [3]
  inhibition in vivo at 2.5 mg/kg: 61%
[1]; [4]
  inhibition in vivo at 2.5 mg/kg: 27%
[2]
  LD50: 218 mg/kg

## CNC(=O)Nc1ccc(OCC(O)CN2CCN(C(=O)/C=C/c3cc(OC)c(OC)c(OC)c3)CC2)cc1 (stereo not drawn) [770 056]
[1]; [7]
  Diminution in consumption of O2: in time: 15 min
  Diminution in the cardiac effort (IK): in time: 15 min
[1]; 0.625 mg/kg i.v. slow perfusion, read-out: Diminution in consumption of O2
  inhibition in vivo at 0.625 mg/kg: 49%
[1]; 0.625 mg/kg i.v. slow perfusion, read-out: Diminution in the cardiac effort (IK)
  inhibition in vivo at 0.625 mg/kg: 22%
[2]
  LD50: 160 mg/kg

## COc1cc(/C=C/C(=O)N2CCN(CC(O)COc3ccc(C(N)=O)cc3)CC2)cc(OC)c1OC (stereo not drawn) [770 058]
[1]; 2.5 mg/kg i.v. slow perfusion
  Diminution in consumption of O2: in time: 30 min
  Diminution in the cardiac effort (IK): in time: 30 min
[1]; [3]
  inhibition in vivo at 2.5 mg/kg: 36%
[1]; [4]
  inhibition in vivo at 2.5 mg/kg: 35%
[2]
  LD50: 315 mg/kg

## COc1cc(/C=C/C(=O)N2CCN(CC(O)CSc3ccc(C)cc3)CC2)cc(OC)c1OC (stereo not drawn) [770 059]
[1]; 5 mg/kg i.v. slow perfusion
  Diminution in consumption of O2: in time: 15 min
  Diminution in the cardiac effort (IK): in time: 15 min
[1]; 5 mg/kg i.v. slow perfusion, read-out: Diminution in consumption of O2
  inhibition in vivo at 5 mg/kg: 64%
[1]; 5 mg/kg i.v. slow perfusion, read-out: Diminution in the cardiac effort (IK)
  inhibition in vivo at 5 mg/kg: 12%
[2]
  LD50: 91 mg/kg

## COc1cc(/C=C/C(=O)N2CCN(CC(O)CSc3ccccc3)CC2)cc(OC)c1OC (stereo not drawn) [770 060]
[1]; 2.3 mg/kg i.v. slow perfusion
  Diminution in consumption of O2: in time: 23 min
  Diminution in the cardiac effort (IK): in time: 30 min
[1]; 2.3 mg/kg i.v. slow perfusion, read-out: Diminution in consumption of O2
  inhibition in vivo at 2.3 mg/kg: 58%
[1]; 2.3 mg/kg i.v. slow perfusion, read-out: Diminution in the cardiac effort (IK)
  inhibition in vivo at 2.3 mg/kg: 35%
[2]
  LD50: 195 mg/kg

## COc1cc(C(C)=O)ccc1OCC(O)CN1CCN(C(=O)/C=C/c2cc(OC)c(OC)c(OC)c2)CC1 (stereo not drawn) [770 073]
[1]; 0.12 mg/kg i.v. slow perfusion
  Diminution in consumption of O2: in time: 30 min
  Diminution in the cardiac effort (IK): in time: 15 min
[1]; [5]
  inhibition in vivo at 0.12 mg/kg: 24%
[1]; [6]
  inhibition in vivo at 0.12 mg/kg: 16%
[2]
  LD50: 158 mg/kg

## CNC(=O)Nc1ccc(OCC(O)CN2CCN(C(=O)/C=C/c3cc(OC)c(OC)c(OC)c3)CC2)c2c1OCCO2 (stereo not drawn) [770 077]
[1]; read-out: Diminution in consumption of O2
  inhibition in vivo at […]: 44%
[1]; read-out: Diminution in the cardiac effort (IK)
  inhibition in vivo at […]: 28%
[2]; 400 mg/kg i.v.
  mortality: 0%
